# The source made the active and inactive calls. The rule behind the calls is not given here.
# Key:
# [1] = vps1Δ single mutant yeast growth suppression – S. cerevisiae, background strain comparison, dose response (AID 790); conditions: S. cerevisiae vps1Δ mutant growth inhibition; for IC50: measured here: background strain growth inhibition; for growth inhibition: at 25 µM (top of the series)
# [2] = test system: S. cerevisiae vps1Δ mutant growth inhibition; assay: as above
SMILES,IC50 [1] [µM],IC50 [2],growth inhibition [1]
Cc1cccc2cc(C#N)c(NCCCn3ccnc3)nc12,> 10,> 10 µM (inactive),
N=c1c2c(-c3ccccc3)c(-c3ccccc3)n(Cc3ccco3)c2ncn1Cc1ccco1,21.5,> 10 µM (inactive),
CCSc1nnc(NC(=O)NCC(F)(F)F)s1,> 10,> 10 µM (inactive),
Cc1ccc(-n2cc3c(-c4cccc(Br)c4)nnc(C)c3n2)cc1,13.5,1.48 µM,
N=c1nc(N)nc2n1NC(c1ccc(F)cc1)=CS2,> 10,> 10 µM (inactive),
O=S1(=O)C=C(Sc2nnc(-c3ccccc3)o2)c2ccccc21,,24.2 µM,
COC(=O)c1ccc(NC(=O)c2cn(-c3ccccc3)nc2-c2ccncc2)cc1,> 10,> 10 µM (inactive),
CC(NC(=O)CSc1nc2c(cc1C#N)CN(C)CC2)c1ccccc1 (stereo not drawn),> 10,> 10 µM (inactive),
O=S(=O)(Cc1ccccc1Cl)N1CCN(Cc2ccc3c(c2)OCO3)CC1,,> 10 µM (inactive),
O=C(COc1ccc(Cl)cc1Cl)NCCCN1CCOCC1,> 10,> 10 µM (inactive),
O=C(NCC(c1cccnc1)N1CCN(c2ccccc2)CC1)c1ccc2c(c1)OCO2 (stereo not drawn),> 10,> 10 µM (inactive),
Cc1cc(N2C(=O)C3CCCN3C2c2sccc2C)no1 (stereo not drawn),> 10,> 10 µM (inactive),
O=C(Nc1nnc(-c2ccc(Cl)cc2)o1)c1ccccc1Br,13.1,2.37 µM,
CCOC(=O)c1c(NC(=O)CN2CCCCC2)sc2c1CCC(C=O)=C2Cl,> 10,> 10 µM (inactive),
CCCCS(=O)(=O)/C=C\C=C/S(=O)(=O)CCCC,13.9,12.1 µM,
O=C(NC1CCCC1)C(c1ccsc1)N(C(=O)Cc1cccs1)c1ccc(F)cc1 (stereo not drawn),> 10,> 10 µM (inactive),
CC1CC(C)CN(CCOc2ccc(Cl)cc2Cl)C1 (stereo not drawn),> 10,> 10 µM (inactive),
Cc1nn(-c2ccccn2)c(C)c1Oc1ccccc1O,> 10,> 10 µM (inactive),
c1ccc(COc2ccc(CN3CCN(c4ccccn4)CC3)cc2)cc1,> 10,> 10 µM (inactive),
O=C(Nc1cc(C(F)(F)F)ccc1-n1cncn1)c1ccc(-c2ccccc2)cc1,> 10,> 10 µM (inactive),
O=C(COc1ccc(Br)cc1F)NC1CCN(Cc2ccccc2)CC1,> 10,> 10 µM (inactive),
CC1CN(CCCCOc2ccc(C(C)C)cc2)CC(C)O1 (stereo not drawn),> 10,> 10 µM (inactive),
O=C(Nc1nc(-c2ccccn2)cs1)c1ncc(Cl)c(Cl)c1Cl,13.3,2.06 µM,

SMILES,IC50 [1] [µM],IC50 [2],growth inhibition [1]
O=C(OCn1ncc(Br)c(Br)c1=O)c1ccccc1Cl,,6.69 µM,
O=C(Nc1nnc(-c2ccc3c(c2)CCCC3)o1)c1ccccc1,,0.8 µM,
Cc1ccc(Cl)c(OCCCCN(C)Cc2ccccc2)c1,> 10,> 10 µM (inactive),
COc1ccccc1N1CCN(CC(O)c2ccc3cc[nH]c3c2)CC1 (stereo not drawn),> 10,> 10 µM (inactive),
CC(=O)c1cnc2nc(C)nn2c1C,> 10,> 10 µM (inactive),
COCCNC(=O)C(c1ccc(F)cc1)N(CC1CCCO1)C(=O)CCC(=O)Nc1ccccn1 (stereo not drawn),> 10,> 10 µM (inactive),
COc1ccc2c(c1)C(C)=CC(C)(C)N2C(=O)CSc1nnc(-c2ccc(C)cc2)o1,> 10,> 10 µM (inactive),
OC(COCc1ccc(Cl)cc1)CN1CC=C(c2ccccc2)CC1 (stereo not drawn),20.8,,
Cc1ccc(N2CCN(S(=O)(=O)N3CCCCCC3)CC2)cc1Cl,> 10,> 10 µM (inactive),
O=C(NCc1ccc2c(c1)OCO2)c1ccc(-n2cnnn2)cc1,> 10,> 10 µM (inactive),
Clc1ccc(-c2n[nH]c3c2CCC3)c(Cl)c1,0.518,0.219 µM,
CC(C)COC(=O)c1ccc2c(c1O)C(=O)c1ccccc1C2=O,> 10,22.9 µM,
Cc1cc(C)nc(N/N=C/C(Cl)=C/c2ccccc2)n1,> 10,> 10 µM (inactive),
O=C(OCn1ncc(Cl)c(Cl)c1=O)c1cccc(C(F)(F)F)c1,3.51,3.35 µM,
CCc1cc(=O)oc2cc(C)c(CN3CCCC(C)C3)c(O)c12 (stereo not drawn),> 10,> 10 µM (inactive),
O=c1c2c3c(sc2ncn1/N=C/c1ccc([N+](=O)[O-])o1)CCCC3,1.59,2.19 µM (inactive),
CCCn1c(SCc2cc(=O)oc3ccc4ccccc4c23)n[nH]c1=O,> 10,> 10 µM (inactive),
CC(C)c1ccc(C(=O)CSc2n[nH]c(-c3ccncc3)n2)cc1,,> 10 µM (inactive),
CCCC(=O)N1CCN(c2ccc(NC(=O)c3cc4ccccc4o3)cc2Cl)CC1,19.2,> 10 µM (inactive),
COc1ccc(/C=C2\SC(=S)N(NC(=O)c3csc4c3CCCC4)C2=O)cc1,> 10,> 10 µM (inactive),
ON=Cc1cccn1-c1ccccc1,> 10,> 10 µM (inactive),
CC1CCCCN1CCNC(=O)Cn1nc(-c2ccccc2)ccc1=O (stereo not drawn),> 10,> 10 µM (inactive),
N[C@@H](Cc1c[nH]c2ccccc12)c1nnc(SCc2ccc(Cl)cc2)o1,20.4,,

SMILES,IC50 [1] [µM],IC50 [2],growth inhibition [1]
OC(Cn1ccnc1)c1ccc(Cl)cc1Cl (stereo not drawn),> 10,> 10 µM (inactive),
O=C(NCc1ccccc1)NS(=O)(=O)c1ccccc1Cl,> 10,> 10 µM (inactive),
Cc1cccnc1Nc1nc(-c2ccccn2)cs1,> 10,4.17 µM,
c1coc(CNc2nc(N3CCCCC3)nc3ccccc23)c1,> 10,> 10 µM (inactive),
Cc1ccc(S(=O)(=O)c2c(C)nn(C(C)(C)C)c2OC(=O)c2ccc(Br)o2)cc1,> 10,> 10 µM (inactive),
O=C(N/N=C/c1ccc([N+](=O)[O-])o1)c1cc(-c2cccc(Br)c2)nc2ccccc12,4.65,0.918 µM,
NC(=O)c1c(NC(=O)CN2C(=O)CCC2=O)sc2c1CCCCC2,> 10,> 10 µM (inactive),
CCOC(=O)c1ccc(NC(=O)c2ccc(CN3CCOCC3)cc2)cc1,> 10,> 10 µM (inactive),
Cc1ccc(CSc2nc3ccccc3cc2C=O)cc1,2.1,1.99 µM,
Cc1ccc(C(=O)c2c(NC(=O)c3ccncc3)sc3c2CCCC3)cc1,> 10,> 10 µM (inactive),
O=C1C=C(c2ccccc2)C(=O)N1Nc1ccccc1,,22.5 µM,
Cn1c(=O)cc(NCc2ccccc2)[nH]c1=O,> 10,> 10 µM (inactive),
Cc1cc(C)c2c(c1)/C(=C/C(=O)c1ccc(Br)s1)C(=O)N2,1.42,3.71 µM (inactive),
O=C(NC(C(=O)c1ccccc1)N1CCCCC1)c1ccccc1 (stereo not drawn),> 10,> 10 µM (inactive),
CCOC(=O)c1c(CN2CCCCC2C)oc2ccc(OC)cc12 (stereo not drawn),> 10,> 10 µM (inactive),
Cc1cccc(-n2c(N)c(C(=O)NCCN3CCOCC3)c3nc4ccccc4nc32)c1,> 10,> 10 µM (inactive),
Clc1ccc(-c2n[nH]c3c2CCC3)cc1Cl,1.81,1.07 µM,
CC1CCN(S(=O)(=O)c2ccc(NC(=O)CCN3C(=O)c4ccccc4C3=O)cc2)CC1,,> 10 µM (inactive),
OC(c1ccc(Cl)cc1Cl)C(Cc1cccnc1)n1cncn1 (stereo not drawn),> 10,,
CC(c1nnc(SCn2nnc3ccccc3c2=O)n1-c1ccc(Cl)cc1)N(C)C (stereo not drawn),,5.55 µM,
O=[N+]([O-])c1cc(Cl)cc(/C=N\Nc2ccccn2)c1O,,3.42 µM,
O=C(Nc1nnc(-c2cccs2)o1)c1cccc(C(F)(F)F)c1,,1.67 µM (inactive),
CCOc1nc(SCCOc2ccccc2)nc(N(C)C)n1,,> 10 µM (inactive),

SMILES,IC50 [1] [µM],IC50 [2],growth inhibition [1]
N=c1c2c(-c3ccccc3)c(-c3ccccc3)n(Cc3ccco3)c2ncn1Cc1ccccc1,,> 10 µM (inactive),
O=C(CN1CCN(c2ccccn2)CC1)Nc1ccc(Oc2ccccc2)cc1,,> 10 µM (inactive),
COc1ccc(OCCSc2nnc3sc4ccccc4n23)cc1,,> 10 µM (inactive),
C=C(C)C1CC=C(CN2CC(C)OC(C)C2)CC1 (stereo not drawn),> 10,,
O=C(NCC(c1cccnc1)N1CCN(c2ccc(F)cc2)CC1)OCc1ccccc1 (stereo not drawn),,22.4 µM,
O=S1(=O)C=C(Sc2nc3ccccc3s2)c2ccccc21,,> 10 µM (inactive),
CC12CCC(c3c(C(=O)Nc4nccs4)nn(-c4ccccc4)c31)C2(C)C (stereo not drawn),,> 10 µM (inactive),
Cc1[nH]nc(N=CC2=C(O)CC(C)(C)CC2=O)c1-c1ccc(Cl)cc1,,> 10 µM (inactive),
Cc1nc(NC(=O)c2ccccc2)sc1-c1csc(Nc2ccc(F)cc2)n1,> 10,,
Cc1nn(Cc2cccc(C(=O)NC(C)c3ccc(C(C)(C)C)cc3)c2)c(C)c1[N+](=O)[O-] (stereo not drawn),> 10,,23.6% (inactive)
CCOc1ccc(NC(=O)N(C2CCCCC2)C(C)c2cccnc2)cc1 (stereo not drawn),,15.6 µM,
CC(Sc1ccsc1[N+](=O)[O-])C(=O)NCCc1ccc(Cl)cc1 (stereo not drawn),,> 10 µM (inactive),
O=C(NCC1COc2ccccc2O1)c1ccc(Cl)cc1 (stereo not drawn),,3.31 µM,
O=C(OCn1ncc(Br)c(Br)c1=O)c1c(F)cccc1F,,16.2 µM,
Cc1ccc(C(=O)Nc2ccc(Cc3ccncc3)cc2)cc1[N+](=O)[O-],,23.6 µM,
CC1CCC(C(C)C)C(OCC(O)CN2CCN(Cc3ccccc3)CC2)C1 (stereo not drawn),,> 10 µM (inactive),
N#Cc1ccccc1Cn1cc(C(=O)c2cccs2)c2ccccc21,,> 10 µM (inactive),
Cc1cccc(N2CCN(CC(=O)Nc3nccs3)CC2)c1C,> 10,,31.3% (inactive)
CCOC(=O)c1c(-n2c(C)cc(C=C3C(=O)NC(=S)NC3=O)c2C)sc2c1CCCC2,11.5,,
CCCCCCOc1ccc(CN2CCN(CCO)CC2)cc1,,> 10 µM (inactive),
O=C(C1CCCN(S(=O)(=O)c2ccc(Cl)cc2)C1)N(Cc1cccs1)C1CC1 (stereo not drawn),,9.94 µM,
CCCCC(c1nnnn1Cc1ccco1)N1CCN(c2nc3ccccc3s2)CC1 (stereo not drawn),3.9,,
